Measured values published in ChEMBL document CHEMBL4400539, “Discovery of a Novel Chemotype of Histone Lysine Methyltransferase EHMT1/2 (GLP/G9a) Inhibitors: Rational Design, Synthesis, Biological Evaluation, and Co-crystal Structure” (J Med Chem, 2019).

Target: T1, Histone-lysine N-methyltransferase EHMT2 (Homo sapiens, UniProt Q96KQ7)
T1 sequence (Q96KQ7 whole entry): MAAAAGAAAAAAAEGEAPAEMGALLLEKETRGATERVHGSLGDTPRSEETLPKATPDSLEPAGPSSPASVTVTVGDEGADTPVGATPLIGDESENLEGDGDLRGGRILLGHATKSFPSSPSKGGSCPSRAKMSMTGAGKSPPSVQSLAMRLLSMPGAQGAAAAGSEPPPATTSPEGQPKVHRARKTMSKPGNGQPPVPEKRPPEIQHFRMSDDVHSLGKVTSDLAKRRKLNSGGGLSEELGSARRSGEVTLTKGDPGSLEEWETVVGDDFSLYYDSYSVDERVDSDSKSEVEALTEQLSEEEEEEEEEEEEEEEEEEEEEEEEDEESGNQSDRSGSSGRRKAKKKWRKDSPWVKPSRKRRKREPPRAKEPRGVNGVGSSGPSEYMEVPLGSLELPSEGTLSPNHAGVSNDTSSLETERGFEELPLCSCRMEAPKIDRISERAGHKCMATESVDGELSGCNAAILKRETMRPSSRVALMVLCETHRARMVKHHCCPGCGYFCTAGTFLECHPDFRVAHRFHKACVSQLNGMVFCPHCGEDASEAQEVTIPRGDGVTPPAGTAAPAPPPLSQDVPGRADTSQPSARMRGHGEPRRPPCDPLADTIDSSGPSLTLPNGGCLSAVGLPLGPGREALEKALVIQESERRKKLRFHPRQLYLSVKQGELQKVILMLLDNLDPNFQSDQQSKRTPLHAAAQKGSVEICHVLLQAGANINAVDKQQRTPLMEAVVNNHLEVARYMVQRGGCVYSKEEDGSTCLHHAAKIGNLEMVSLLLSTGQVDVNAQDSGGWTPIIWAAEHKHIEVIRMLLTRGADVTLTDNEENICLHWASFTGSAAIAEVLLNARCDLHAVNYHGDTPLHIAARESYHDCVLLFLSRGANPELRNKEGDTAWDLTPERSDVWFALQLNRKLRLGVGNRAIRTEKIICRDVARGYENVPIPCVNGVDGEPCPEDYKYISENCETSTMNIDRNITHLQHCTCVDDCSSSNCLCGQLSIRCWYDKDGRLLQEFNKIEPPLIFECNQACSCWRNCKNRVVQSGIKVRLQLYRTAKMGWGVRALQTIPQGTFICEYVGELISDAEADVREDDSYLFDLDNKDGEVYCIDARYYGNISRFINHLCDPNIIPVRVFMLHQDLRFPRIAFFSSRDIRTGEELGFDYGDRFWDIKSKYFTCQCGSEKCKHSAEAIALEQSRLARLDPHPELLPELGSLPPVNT
Test: Non-competitive inhibition of recombinant human G9a using biotinylated-Histone H3 peptide (1 to 21 residues) as substrate after 30 mins in presence of varying concentration of SAM by Lineweaver-Burk plot analysis

## COc1cc2c(cc1OCCCN1CCCC1)N=C(C1CCCCC1)CN=C2NC1CCN(C(C)C)CC1
  Ki: 3.6 nM
